Laboratory results from patent US5091392A, “Substituted (quinolin-2-yl-methoxy)phenyl-acyl-sulphon-amides and -cyanamides, processes for their preparation and their use in medicaments” (Bayer Aktiengesellschaft, priority 1989, dated 1992).

Tested on: lipoxygenase
Experiment: lipoxygenase inhibition: release of leucotriene B4 (LTB4) from polymorphonuclear rat leucocytes (PMNL) after Ca ionophore, reverse phase HPLC
Type: cell-based
Conditions: LTB4 release from polymorphonuclear rats leucocytes (PMNL), read-out: LO inhibition IC50
Description: The pharmacological activity data of the substances according to the invention are determined by the following method: As a measure of the lipoxygenase inhibition, the release of leucotriene B4 (LTB4) from polymorphonuclear rats leucocytes (PMNL) was determined after addition of substances and Ca ionophore by means of reverse phase HPLC according to Borgeat, P. et al., Proc. Nat. Acad. Sci., 76, 2148-2152 (1979). The in vivo activity of the compounds was detected using the mouse ear inflammation model according to Young, J. M. et al., J. of Investigative Dermatology, 82, 367-371 (1984).

Compound | IC50 [µM]
N#CNC(=O)C(c1ccc(OCc2ccc3ccccc3n2)cc1)C1CCCC1 (stereo not drawn) [Example 7, N-{1-[4-(Quinolin-2-yl-methoxy)phenyl]-1-cyclopentyl}-acetyl-cyanamide] | 0.024
CN(C(=O)C(c1ccc(OCc2ccc3ccccc3n2)cc1)C1CCCC1)S(=O)(=O)C(F)(F)F (stereo not drawn) [Example 6, N-Methyl-N-{1-[4-(quinolin-2-yl-methoxy)phenyl]-1-cyclopentyl-acetyl}-trifluoromethanesulphonamide] | 0.033
CS(=O)(=O)NC(=O)C(c1ccc(OCc2ccc3ccccc3n2)cc1)C1CCCC1 (stereo not drawn) [Example 1] | 0.027
